Measured values from patent US8309121B2, “Dermatological compositions comprising avermectin nanocapsules” (Galderma S.A., priority 2006, dated 2012).

Assays:
[1] = in ceteareth-25, ceteareth-6, PEG-8-distearate, PEG-8-stearate, PEG-660-OH-stearate, PEG-4000, polyoxyethylene-10, glycerol monostearate S/E, propylene glycol dicaprylate, cetearyl octanoate, polyglycerol-3-diolate, C18-C36 triglycerides, Gamma cyclodextrin, soybean lecithin, cholesterol, stearic acid; cited from earlier work
[2] = Stability of ivermectin in various excipients; format: physicochemical; conditions: for T 1 month 40° C. content / T 1 month Tambient content / T 3 months 40° C. content / T 3 months Tambient content: T0 in mg/g; for T 1 month 40° C. (% in brackets) / T 1 month Tambient (% in brackets) / T 3 months 40° C. (% in brackets) / T 3 months Tambient (% in brackets): relative to T0
Excerpt: (§1) There are numerous excipients used in the formulation of emulsions or liposomes which result in degradation of ivermectin. The Table below presents the results of tests of stability and solubility of ivermectin in various excipients: […]

[3] = Solubility of ivermectin in various excipients; format: physicochemical
Excerpt: as §1

[4] = cited from earlier work
[5] = in Labrafac Hydro WL1219 (caprylic/capric triglyceride PEG-4 esters)
[6] = in Labrafac Hydro WL1219, 1 month
[7] = in Lipoid S75-3 + benzyl alcohol, 1 month
[8] = in Lipoid S75-3 + benzyl alcohol
[9] = in Mygliol 812 (medium-chain triglycerides of caprylic and capric acids)
[10] = in Ph90H + benzyl alcohol, 1 month
[11] = in Solutol HS15 (PEG-15 hydroxystearate)

With ivermectin as the substance, how does the “Stability in lipophilic excipients (in words)” value [1] read?
The value was “degradation”.

What about the “Degradation by hydrogenated lecithins (in words)” value ([2]; hydrogenated lecithins, studies of Example 1) of the same substance?
The value was “do not degrade”.

And the “T 1 month 40° C. content” value ([2]; in Benzyl alcohol, 1 month)?
Its value is 9.7.

What about the “T 1 month 40° C. (% in brackets)” value ([2]; in Benzyl alcohol, 1 month) of the same substance?
Its value is “(98%)”.

And the “T 1 month Tambient content” value ([2]; in Benzyl alcohol, 1 month)?
The value was 9.8.

And the “T 1 month Tambient (% in brackets)” value ([2]; in Benzyl alcohol, 1 month)?
Its value is “(99%)”.

What about the T0 content ([2]; in Benzyl alcohol) of the same substance?
Its T0 content is 9.9 mg/g.

And the “Stability (in words)” value ([2]; in Crodamol DA)?
Its value is “Stable over 1 month”.

What about the T0 content [2, 5] of the same substance?
The T0 content was 9.0 mg/g.

What about the “T 1 month 40° C. content” value [2, 6] of the same substance?
Its value is 6.7.

What about the “T 1 month 40° C. (% in brackets)” value [2, 6] of the same substance?
Its value is “(75%)”.

And the “T 1 month Tambient content” value [2, 6]?
Its value is 8.5.

And the “T 1 month Tambient (% in brackets)” value [2, 6]?
Its value is “(95%)”.

What about the “T 3 months 40° C. content” value ([2]; in Labrafac Hydro WL1219) of the same substance?
Its value is 4.2.

And the “T 3 months 40° C. (% in brackets)” value ([2]; in Labrafac Hydro WL1219)?
Its value is “(47%)”.

And the “T 3 months Tambient content” value ([2]; in Labrafac Hydro WL1219)?
Its value is 6.3.

And the “T 3 months Tambient (% in brackets)” value ([2]; in Labrafac Hydro WL1219)?
The value was “(70%)”.

And the T0 content ([2]; in Labrasol (PEG-8 caprylic/capric glycerides))?
The T0 content was 8.1 mg/g.

What about the “T 1 month 40° C. content” value ([2]; in Labrasol, 1 month) of the same substance?
The value was 7.9.

And the “T 1 month 40° C. (% in brackets)” value ([2]; in Labrasol, 1 month)?
The value was “(98%)”.

What about the “T 1 month Tambient content” value ([2]; in Labrasol, 1 month) of the same substance?
The value was 8.1.

And the “T 1 month Tambient (% in brackets)” value ([2]; in Labrasol, 1 month)?
Its value is “(100%)”.

What about the “T 3 months 40° C. content” value ([2]; in Labrasol) of the same substance?
Its value is 5.6.

What about the “T 3 months 40° C. (% in brackets)” value ([2]; in Labrasol) of the same substance?
The value was “(69%)”.

What about the “T 3 months Tambient content” value ([2]; in Labrasol) of the same substance?
The value was 8.1.

And the “T 3 months Tambient (% in brackets)” value ([2]; in Labrasol)?
The value was “(100%)”.

What about the “T 1 month 40° C. content” value [2, 7] of the same substance?
The value was 9.5.

And the “T 1 month 40° C. (% in brackets)” value [2, 7]?
Its value is “(101%)”.

And the “T 1 month Tambient content” value [2, 7]?
The value was 9.5.

And the “T 1 month Tambient (% in brackets)” value [2, 7]?
Its value is “(101%)”.

And the “T 3 months 40° C. content” value [2, 8]?
Its value is 9.7.

What about the “T 3 months 40° C. (% in brackets)” value [2, 8] of the same substance?
Its value is “(103%)”.

What about the “T 3 months Tambient content” value [2, 8] of the same substance?
Its value is 9.2.

What about the “T 3 months Tambient (% in brackets)” value [2, 8] of the same substance?
Its value is “(98%)”.

What about the T0 content [2, 8] of the same substance?
Its T0 content is 9.4 mg/g.

What about the “T 1 month 40° C. content” value ([2]; in Miglyol 812, 1 month) of the same substance?
The value was 8.2.

And the “T 1 month 40° C. (% in brackets)” value ([2]; in Miglyol 812, 1 month)?
Its value is “(94%)”.

And the “T 1 month Tambient content” value ([2]; in Miglyol 812, 1 month)?
The value was 8.3.

What about the “T 1 month Tambient (% in brackets)” value ([2]; in Miglyol 812, 1 month) of the same substance?
The value was “(95%)”.

What about the “T 3 months 40° C. content” value ([2]; in Miglyol 812) of the same substance?
Its value is 8.4.

What about the “T 3 months 40° C. (% in brackets)” value ([2]; in Miglyol 812) of the same substance?
Its value is “(96%)”.

What about the “T 3 months Tambient content” value ([2]; in Miglyol 812) of the same substance?
The value was 8.3.

What about the “T 3 months Tambient (% in brackets)” value ([2]; in Miglyol 812) of the same substance?
The value was “(96%)”.

What about the T0 content ([2]; in Miglyol 812) of the same substance?
The T0 content was 8.7 mg/g.

What about the “Stability (in words)” value [2, 9] of the same substance?
The value was “not perfectly stable”.

What about the T0 content ([2]; in Ph90H (Phospholipon 90H) + benzyl alcohol) of the same substance?
The T0 content was 9.25 mg/g.

And the “T 1 month 40° C. content” value [2, 10]?
Its value is 9.5.

What about the “T 1 month 40° C. (% in brackets)” value [2, 10] of the same substance?
The value was “(103%)”.

And the “T 1 month Tambient content” value [2, 10]?
Its value is 9.7.

What about the “T 1 month Tambient (% in brackets)” value [2, 10] of the same substance?
The value was “(105%)”.

And the T0 content [2, 11]?
The T0 content was 9.8 mg/g.

What about the “degradation at 1 month” value ([2]; in Solutol HS15, 1 month) of the same substance?
Its value is 28%.

What about the “T 1 month 40° C. content” value ([2]; in Solutol HS15, 1 month) of the same substance?
Its value is 7.1.

And the “T 1 month 40° C. (% in brackets)” value ([2]; in Solutol HS15, 1 month)?
The value was “(72%)”.

And the “T 1 month Tambient content” value ([2]; in Solutol HS15, 1 month)?
Its value is 9.4.

What about the “T 1 month Tambient (% in brackets)” value ([2]; in Solutol HS15, 1 month) of the same substance?
The value was “(95%)”.

What about the Solubility max ([3]; in Benzyl alcohol) of the same substance?
The Solubility max was 32.8 mg/g.

And the Solubility max ([3]; in Benzyl benzoate)?
The Solubility max was 44.2 mg/g.

What about the Solubility max ([3]; in Crodamol DA) of the same substance?
Its Solubility max is 94.2 mg/g.

What about the Solubility max [3, 5] of the same substance?
The Solubility max was 70 mg/g.

And the Solubility max ([3]; in Miglyol 812)?
The Solubility max was 17.9 mg/g.

What about the “Solubility (in words)” value [3, 9] of the same substance?
The value was “relatively low solubility”.

What about the Solubility max [3, 11] of the same substance?
The Solubility max was 10.8 mg/g.

What about the “Stability in a hydrophilic medium (in words)” value ([4]; hydrophilic medium) of the same substance?
The value was “degraded”.

What about the solubility in water ([4]; water) of the same substance?
Its solubility in water is 5 µg/mL.
